Consider 7 compounds from patent US8188111B2, “Amide and carbamate derivatives of alkyl substituted N-[4-(4-amino-1H-imidazo[4,5-c]quinolin-1-yl)butyI]methanesulfonamides and methods” (3M Innovative Properties Company, priority 2005, dated 2012).

A word on the melting point: it is the temperature, or range, at which the solid turns liquid.

The structures appear in SMILES notation.

The compound `CCc1nc2c(NC(=O)C(C)(C)C)nc3ccccc3c2n1CCCCNS(C)(=O)=O` [Example 5, N-(2-Ethyl-1-{4-[(methylsulfonyl)amino]butyl}-1H-imidazo[4,5-c]quinolin-4-yl)-2,2-dimethylpropanamide] displayed a melting point of 220 to 221 °C.
`CCc1nc2c(NC(C)=O)nc3ccccc3c2n1CCCCNS(C)(=O)=O` [Example 1, N-(2-Ethyl-1-{4-[(methylsulfonyl)amino]butyl}-1H-imidazo[4,5-c]quinolin-4-yl)acetamide] returned a melting point of 90 to 91 °C.
`CCCOC(=O)Nc1nc2ccccc2c2c1nc(CC)n2CCCCNS(C)(=O)=O` [Example 6, Propyl 2-Ethyl-1-{4-[(methylsulfonyl)amino]butyl}-1H-imidazo[4,5-c]quinolin-4-ylcarbamate]: the melting point was 155 to 157 °C.
Turning to `CCCCOC(=O)Nc1nc2ccccc2c2c1nc(CC)n2CCCCNS(C)(=O)=O` [Example 7, Butyl 2-Ethyl-1-{4-[(methylsulfonyl)amino]butyl}-1H-imidazo[4,5-c]quinolin-4-ylcarbamate], the melting point was in the range of 164 to 166 °C.
As for `CCc1nc2c(NC(=O)c3ccccc3)nc3ccccc3c2n1CCCCNS(C)(=O)=O` [Example 2, N-(2-Ethyl-1-{4-[(methylsulfonyl)amino]butyl}-1H-imidazo[4,5-c]quinolin-4-yl)benzamide], the melting point lay within 249 to 250 °C.
For `CCc1nc2c(NC(=O)C(C)C)nc3ccccc3c2n1CCCCNS(C)(=O)=O` [Example 4, N-(2-Ethyl-1-{4-[(methylsulfonyl)amino]butyl}-1H-imidazo[4,5-c]quinolin-4-yl)-2-methylpropanamide], the melting point lay within 122 to 124 °C.
For the compound `CCOC(=O)Nc1nc2ccccc2c2c1nc(CC)n2CCCCNS(C)(=O)=O` [Example 3, Ethyl 2-Ethyl-1-{4-[(methylsulfonyl)amino]butyl}-1H-imidazo[4,5-c]quinolin-4-ylcarbamate], the melting point fell in the range of 185 to 187 °C.
